We go through 50 molecules from ChEMBL document CHEMBL4765341, “A series of octahydroquinazoline-5-ones as novel inhibitors against dengue virus” (Eur J Med Chem, 2020).

Molecules are shown by their SMILES. Activity calls are given as the source filed them. The rule behind the calls is not given here. Some results are limits rather than exact numbers.

In series [1] the test system is dengue virus type 2. The series can be described thus: Antiviral activity against DENV-2 infected in BHK-21 cells assessed as cytopathic effect after 96 hrs by LDH assay. It is filed as functional, organism-based. Conditions: for EC50: BHK-21, 96 h.
A short description of series [2]: Cytotoxicity against golden hamster BHK-21 cells incubated for 48 hrs by MTT assay. It is filed as cell-based, Mesocricetus auratus. Background: Formazan colour is commonly taken as a measure of viable cells.
Series [3] is described as follows: Selectivity index, ratio of CC50 for golden hamster BHK-21 cells EC50 for DENV-2 infected in BHK-21 cells. It is filed as toxicity, cell-based. Conditions: read-out: Selectivity Index.
Series [4] concerns BHK-21. The series can be described thus: Binding affinity to MTase domain of NS5 in DENV-2 infected in BHK-21 cells by isothermal titration calorimetry assay. Conditions: dengue virus type 2. A general note: In ITC the heat of successive injections is recorded.
Series [5] concerns dengue virus type 2. Description: Antiviral activity against second round DENV-2 infected in BHK-21 cells assessed as reduction in new virion infectivity measured after 24 hrs by focus-forming assay. It is filed as functional, organism-based.
Series [6] concerns BHK-21. Description: Reduction in viral structure E protein expression in DENV-2 infected golden hamster BHK-21 cells at 2.5 uM by Western blot analysis relative to control. It is filed as functional, cell-based. Conditions: dengue virus type 2. A general note: A western blot detects proteins with antibodies after separation by electrophoresis.
Series [7] can be described thus: Reduction in viral structure E protein expression in DENV-2 infected golden hamster BHK-21 cells at 10 uM by Western blot analysis relative to control. In kind it is functional, dengue virus type 2. The note with it: Dengue virus.
Series [8] deals with BHK-21. Description: Reduction in viral structure E protein expression in second round DENV-2 infected golden hamster BHK-21 cells assessed in new virions at 0.5 to 10 uM measured after 24 hrs by Western blot analysis relative to control. The note with it: dengue virus type 2, dose 0.5-10 µM. In kind it is functional, cell-based.
For series [9], the system named is BHK-21. The series can be described thus: Reduction in viral structure E protein expression in second round DENV-2 infected golden hamster BHK-21 cells assessed in new virions at 0.5 to 10 uM measured after 24 hrs by confocal microscopy relative to control. In kind it is functional, cell-based. Conditions: dengue virus type 2, dose 0.5-10 µM.
For series [10], the system named is BHK-21. Description: Binding affinity to RdRp domain of NS5 in DENV-2 infected in BHK-21 cells by isothermal titration calorimetry assay. Conditions: dengue virus type 2.

Consider `CC1(C)CC(=O)C2=C(C1)N(c1ccccc1)C(c1ccc(Cl)cc1)N(c1ccccc1)C2` (centres undefined), for which, in the series on dengue virus type 2 [1], the 50% effective concentration (EC50) (usually the concentration giving half of the maximal effect) was 5.96 µM.
Still for that read-out and setting: to `CC1(C)CC(=O)C2=C(C1)N(c1ccccc1)C(c1ccc(C(F)(F)F)cc1)N(c1ccccc1)C2` (centres undefined) belongs 3.75 µM; to `CC(C)C1N(c2ccccc2)CC2=C(CC(C)(C)CC2=O)N1c1ccccc1` (centres undefined), more than 20 µM.
As to `CC1(C)CC(=O)C2=C(C1)N(c1ccccc1)C(c1ccc(Br)cc1)N(c1ccc3ccccc3c1)C2` (centres undefined), the EC50 in the series with dengue virus type 2 [1] stood at 1.77 µM.
As for `CC1(C)CC(=O)C2=C(C1)N(c1ccc(F)cc1)C(c1ccc(Br)cc1)N(c1ccc(Cl)cc1)C2` (centres undefined), the EC50 in the series on dengue virus type 2 [1] worked out at 2.64 µM. For the same molecule, in series [2], the CC50 – broadly, the concentration at which the toxic effect on the cells reaches its halfway point – at 48 h is more than 20 µM. In addition, the selectivity ratio in [3] was more than 7.58.
As for `CC1(C)CC(=O)C2=C(C1)N(c1ccccc1)C(c1ccc3ccccc3c1)N(c1ccccc1)C2` (centres undefined), the 50% effective concentration (EC50) with dengue virus type 2 [1] is more than 20 µM.
On the same count and under the same terms, in the case of `CC1(C)CC(=O)C2=C(C1)N(c1ccccc1)C(c1ccc(Br)cc1)N(Cc1ccccc1)C2` (centres undefined) it was more than 20 µM; in that of `CC1(C)CC(=O)C2=C(C1)N(c1ccccc1)C(c1ccc(Br)cc1)N(c1ccc(OC(F)(F)F)cc1)C2` (centres undefined), 1.84 µM; in that of `CC1(C)CC(=O)C2=C(C1)N(c1ccccc1)C(c1ccc(Br)cc1)N(c1ccccc1Cl)C2` (centres undefined), more than 20 µM.
Same read-out and setting: in the case of `CC1(C)CC(=O)C2=C(C1)N(c1ccccc1)C(c1ccc(-c3ccccc3)cc1)N(c1ccccc1)C2` (centres undefined) it was more than 20 µM; in that of `CCCCC1N(c2ccccc2)CC2=C(CC(C)(C)CC2=O)N1c1ccccc1` (centres undefined), more than 20 µM.
As to `CC1(C)CC(=O)C2=C(C1)N(c1ccc(Cc3ccccc3)cc1)C(c1ccc(Br)cc1)N(c1ccc(Cl)cc1)C2` (centres undefined), the 50% effective concentration (EC50) in the series with dengue virus type 2 [1] is more than 20 µM.
The same measure, in the same setting: in the case of `COc1cc(C2N(c3ccccc3)CC3=C(CC(C)(C)CC3=O)N2c2ccccc2)cc(OC)c1O` (centres undefined) it was more than 20 µM; in that of `CC1(C)CC(=O)C2=C(C1)N(c1ccccc1)C(c1ccc(Br)cc1)N(c1ccc(-c3ccccc3)cc1)C2` (centres undefined), more than 20 µM.
On to `CC1(C)CC(=O)C2=C(C1)N(c1ccc(-c3ccccc3)cc1)C(c1ccc(Br)cc1)N(c1ccc(Cl)cc1)C2` (centres undefined), for which the EC50 in the series on dengue virus type 2 [1] is more than 20 µM.
For the molecule `CC1(C)CC(=O)C2=C(C1)N(c1ccccc1)C(c1ccc(Br)cc1)N(c1ccc(C(F)(F)F)cc1)C2` (centres undefined), the EC50 in the series on dengue virus type 2 [1] came to 4.02 µM.
Still for that read-out and setting: to `CC1(C)CC(=O)C2=C(C1)N(c1ccccc1)C(c1ccc(OC(C)(C)C)cc1)N(c1ccccc1)C2` (centres undefined) belongs 2.63 µM.
As for `CC1(C)CC(=O)C2=C(C1)N(c1ccccc1)C(c1ccc(Br)cc1)N(c1ccc(Cl)cc1)C2` (centres undefined), the EC50 in the series with dengue virus type 2 [1] was 1.38 µM. The CC50 at 48 h in series [2] came out at 12.7 µM. Further, the selectivity ratio in series [3] worked out at 9.18.
Regarding `CC1(C)CC(=O)C2=C(C1)N(c1ccccc1)C(c1cccc(Br)c1)N(c1ccccc1)C2` (centres undefined), in the series with dengue virus type 2 [1], the Activity result was “Dose-dependent effect”. Also, the EC50 in the series with dengue virus type 2 [1] was 1.31 µM. The CC50 at 48 h in [2] was more than 20 µM. In addition, in [3], the selectivity ratio was more than 15.3. Besides, the outcome in the series with BHK-21 [4] and with BHK-21 [10] was inactive. In the series on dengue virus type 2 [5], the outcome was Active. The inhibition result in the series on BHK-21 [6], with BHK-21 [8] and in the series on BHK-21 [9] was “Active” in each case. Besides, the inhibition (in general, the drop in the measured response relative to a control, in per cent) at 10 µM in series [7] was 100%.
Turning to `CC1(C)CC(=O)C2=C(C1)N(c1ccccc1)C(c1ccc(OC(F)(F)F)cc1)N(c1ccccc1)C2` (centres undefined), in the series on dengue virus type 2 [1], the concentration for a half-maximal effect (EC50) was determined as 2.52 µM.
On to `CC1(C)CC(=O)C2=C(C1)N(c1ccccc1)C(c1ccc(Br)cc1)N(c1ccc(Oc3ccccc3)cc1)C2` (centres undefined), for which, in the series on dengue virus type 2 [1], the 50% effective concentration (EC50) worked out at 1.85 µM. Also, it took 10.9 µM to reach half-maximal cytotoxicity in series [2] (CC50 at 48 h). The selectivity ratio in series [3] was 5.89.
With `CC1(C)CC(=O)C2=C(C1)N(c1ccccc1)C(c1cccc3ccccc13)N(c1ccccc1)C2` (centres undefined), in the series on dengue virus type 2 [1], the EC50 was determined as 3.87 µM.
The same measure, in the same setting: to `CC1(C)CC(=O)C2=C(C1)N(c1ccc(Oc3ccccc3)cc1)C(c1ccc(Br)cc1)N(c1ccc(Cl)cc1)C2` (centres undefined) belongs more than 20 µM.
Turning to `CC1(C)CC(=O)C2=C(C1)N(c1cccc(Cl)c1)C(c1ccc(Br)cc1)N(c1ccc(Cl)cc1)C2` (centres undefined), the EC50 in the series with dengue virus type 2 [1] was found to be 5.6 µM.
Consider `CC1(C)CC(=O)C2=C(C1)N(c1ccccc1)C(c1ccc([N+](=O)[O-])cc1)N(c1ccccc1)C2` (centres undefined), for which, in the series on dengue virus type 2 [1], the concentration for a half-maximal effect (EC50) was found to be 3.75 µM.
For `CC1(C)CC(=O)C2=C(C1)N(c1ccccc1)C(c1ccc(Br)cc1)N(c1ccc(C(C)(C)C)cc1)C2` (centres undefined), the 50% effective concentration (EC50) in the series with dengue virus type 2 [1] was 5.33 µM.
Regarding `CC1(C)CC(=O)C2=C(C1)N(c1ccc3ccccc3c1)C(c1ccc(Br)cc1)N(c1ccc(Cl)cc1)C2` (centres undefined), the 50% effective concentration (EC50) in the series with dengue virus type 2 [1] was 13.5 µM.
Same read-out and setting: in the case of `CC1(C)CC(=O)C2=C(C1)N(c1ccccc1)C(c1ccc(Br)cc1)N(c1cccc(Cl)c1)C2` (centres undefined) it was 4.73 µM; in that of `CC1(C)CC(=O)C2=C(C1)N(c1ccccc1)C(c1ccccc1Br)N(c1ccccc1)C2` (centres undefined), 3.88 µM.
Turning to `CC1(C)CC(=O)C2=C(C1)N(c1ccc(Cl)cc1)C(c1ccc(Br)cc1)N(c1ccc(Cl)cc1)C2` (centres undefined), in the series on dengue virus type 2 [1], the EC50 worked out at 4.33 µM.
Still for that read-out and setting: to `COc1ccc(C2N(c3ccccc3)CC3=C(CC(C)(C)CC3=O)N2c2ccccc2)cc1` (centres undefined) belongs 7.52 µM; to `CC1(C)CC(=O)C2=C(C1)N(c1ccccc1)C(c1ccccc1)N(c1ccccc1)C2` (centres undefined), more than 20 µM.
`CC1(C)CC(=O)C2=C(C1)N(c1ccccc1)C(c1ccc(C(C)(C)C)cc1)N(c1ccccc1)C2` (centres undefined): the EC50 in the series with dengue virus type 2 [1] was 8.61 µM.
The same measure, in the same setting: to `CC1(C)CC(=O)C2=C(C1)N(c1ccccc1)C(c1cccc([N+](=O)[O-])c1)N(c1ccccc1)C2` (centres undefined) belongs 2.83 µM; to `CC(C)c1ccc(N2CC3=C(CC(C)(C)CC3=O)N(c3ccccc3)C2c2ccc(Br)cc2)cc1` (centres undefined), 5.55 µM.
Take `CC1(C)CC(=O)C2=C(C1)N(c1ccccc1)C(c1ccc(Br)cc1)N(c1ccccc1)C2` (centres undefined): in the series on dengue virus type 2 [1], the EC50 was 2.85 µM. Also, the half-maximal cytotoxic concentration (CC50) at 48 h in [2] is more than 20 µM. Further, the selectivity ratio in [3] is more than 7.02.
On to `CC1(C)CC(=O)C2=C(C1)N(c1ccccc1)C(c1ccc(Br)cc1)N(c1ccc(F)cc1)C2` (centres undefined), for which, in the series on dengue virus type 2 [1], the EC50 was 1.9 µM. In series [2], the CC50 at 48 h came out at 10 µM. The selectivity ratio in series [3] came out at 5.3.
In the case of `Cc1ccc(C2N(c3ccccc3)CC3=C(CC(C)(C)CC3=O)N2c2ccccc2)s1` (centres undefined), the EC50 in the series on dengue virus type 2 [1] amounted to 3.24 µM.
Still for that read-out and setting: to `CC1(C)CC(=O)C2=C(C1)N(c1ccccc1)C(c1ccc(C#N)cc1)N(c1ccccc1)C2` (centres undefined) belongs 7.45 µM; to `CC1(C)CC(=O)C2=C(C1)N(Cc1ccccc1)C(c1ccccc1)N(Cc1ccccc1)C2` (centres undefined), more than 20 µM.
`CC1(C)CC(=O)C2=C(C1)N(c1ccccc1)C(c1ccc(OCc3ccccc3)cc1)N(c1ccccc1)C2` (centres undefined): in the series on dengue virus type 2 [1], the EC50 came out at 2.61 µM.
For the molecule `CC1(C)CC(=O)C2=C(C1)N(c1ccccc1)C(c1ccc(F)cc1)N(c1ccccc1)C2` (centres undefined), the EC50 with dengue virus type 2 [1] was more than 20 µM.
Still for that read-out and setting: in the case of `COc1ccc(N2CC3=C(CC(C)(C)CC3=O)N(c3ccccc3)C2c2ccc(Br)cc2)cc1` (centres undefined) it was 5.42 µM.
The same measure, in the same setting: in the case of `CC(C)c1ccc(C2N(c3ccccc3)CC3=C(CC(C)(C)CC3=O)N2c2ccccc2)cc1` (centres undefined) it was 3.6 µM; in that of `CC1(C)CC(=O)C2=C(C1)N(c1ccccc1)C(c1ccc(Br)cc1)N(c1ccc(Br)cc1)C2` (centres undefined), 2.33 µM.
Take `CC1(C)CC(=O)C2=C(C1)N(c1ccccc1)C(c1cccc(C(F)(F)F)c1)N(c1ccccc1)C2` (centres undefined): the EC50 in the series with dengue virus type 2 [1] was determined as 1.32 µM. Moreover, the CC50 at 48 h in series [2] came to 17.9 µM. The selectivity ratio in [3] was determined as 13.5.
The like results for `COc1ccc(N2C3=C(CN(c4ccc(Cl)cc4)C2c2ccc(Br)cc2)C(=O)CC(C)(C)C3)cc1` (centres undefined) were, in that order, 2.6 µM, more than 20 µM and more than 7.69.
For `CC1(C)CC(=O)C2=C(C1)N(c1ccccc1)C(c1ccc(O)cc1)N(c1ccccc1)C2` (centres undefined), in the series on dengue virus type 2 [1], the EC50 is more than 20 µM.
With `CC(C)Oc1ccc(C2N(c3ccccc3)CC3=C(CC(C)(C)CC3=O)N2c2ccccc2)cc1` (centres undefined), in the series on dengue virus type 2 [1], the concentration giving a half-maximal response (EC50) stood at 5.03 µM.
Same read-out and setting: to `CC1(C)CC(=O)C2=C(C1)N(c1ccccc1)C(c1cccs1)N(c1ccccc1)C2` (centres undefined) belongs more than 20 µM.
